tested on: HCI-024 (organoid from a breast cancer xenograft); assay: CTG-3D luminescence at 96 h relative to day-0 seeding control (ratio to day 0); higher = more growth / less cytotoxicity; PDxO 3D drug screen, 96 h, CTG-3D normalised to day-0 seeding control.; details: 10 µM; days in culture: 105

Compared with NC1(C(=O)N[C@@H](CCO)c2ccc(Cl)cc2)CCN(c2nc[nH]c3nccc2-3)CC1 [capivasertib], C[C@H](NC(=O)CCC(F)(F)F)C(=O)N[C@@H]1C(=O)N(CCO)c2ncccc2-c2ccccc21 [crenigacestat] is higher in “CTG-3D luminescence at 96 h” value: 0.839 for the first, 1.98 for the second.

Going from CC(C)n1nc(-c2ccc3oc(N)nc3c2)c2c(N)ncnc21 [sapanisertib] to Cc1cc(Nc2ncnc3ccc(NC4=NC(C)(C)CO4)cc23)ccc1Oc1ccn2ncnc2c1 [tucatinib], the “CTG-3D luminescence at 96 h” value rises from 0.64 to 1.54.

Compared with O=C(c1ccc(F)c(F)c1Nc1ccc(I)cc1F)N1CC(O)([C@@H]2CCCCN2)C1 [cobimetinib], NC(=O)c1cccc2cn(-c3ccc([C@@H]4CCCNC4)cc3)nc12 [niraparib] is higher in “CTG-3D luminescence at 96 h” value: 0.316 for the first, 1.27 for the second.

Going from Cc1cc(Nc2ncc(Cl)c(Nc3ccccc3S(=O)(=O)C(C)C)n2)c(OC(C)C)cc1C1CCNCC1 [ceritinib] to CS(=O)(=O)c1ccc(C(=O)Nc2ccc(Cl)c(-c3ccccn3)c2)c(Cl)c1 [vismodegib], the “CTG-3D luminescence at 96 h” value rises from 0.00435 to 1.97.

With CCN(c1cc(C#CCN2CCOCC2)cc(C(=O)NCc2c(C)cc(C)[nH]c2=O)c1C)[C@H]1CC[C@H](N(C)CCOC)CC1 the “CTG-3D luminescence at 96 h” value was 2.22.

same assay, conditions: 10 µM; days in culture: 122

Going from NC1(C(=O)N[C@@H](CCO)c2ccc(Cl)cc2)CCN(c2nc[nH]c3nccc2-3)CC1 [capivasertib] to C[C@H](NC(=O)CCC(F)(F)F)C(=O)N[C@@H]1C(=O)N(CCO)c2ncccc2-c2ccccc21 [crenigacestat], the “CTG-3D luminescence at 96 h” value rises from 1.35 to 2.75.

First: CC(C)n1nc(-c2ccc3oc(N)nc3c2)c2c(N)ncnc21 [sapanisertib]
Second: Cc1cc(Nc2ncnc3ccc(NC4=NC(C)(C)CO4)cc23)ccc1Oc1ccn2ncnc2c1 [tucatinib]
The “CTG-3D luminescence at 96 h” value of the first is lower: 0.81 for the first, 1.83 for the second.

Going from O=C(c1ccc(F)c(F)c1Nc1ccc(I)cc1F)N1CC(O)([C@@H]2CCCCN2)C1 [cobimetinib] to NC(=O)c1cccc2cn(-c3ccc([C@@H]4CCCNC4)cc3)nc12 [niraparib], the “CTG-3D luminescence at 96 h” value rises from 0.979 to 1.29.

Compared with Cc1cc(Nc2ncc(Cl)c(Nc3ccccc3S(=O)(=O)C(C)C)n2)c(OC(C)C)cc1C1CCNCC1 [ceritinib], CS(=O)(=O)c1ccc(C(=O)Nc2ccc(Cl)c(-c3ccccn3)c2)c(Cl)c1 [vismodegib] is higher in “CTG-3D luminescence at 96 h” value: 0.00674 for the first, 2.75 for the second.

In the case of CCN(c1cc(C#CCN2CCOCC2)cc(C(=O)NCc2c(C)cc(C)[nH]c2=O)c1C)[C@H]1CC[C@H](N(C)CCOC)CC1, the “CTG-3D luminescence at 96 h” value is reported as 3.46.

same assay, conditions: 10 µM; days in culture: 163

First: NC1(C(=O)N[C@@H](CCO)c2ccc(Cl)cc2)CCN(c2nc[nH]c3nccc2-3)CC1 [capivasertib]
Second: C[C@H](NC(=O)CCC(F)(F)F)C(=O)N[C@@H]1C(=O)N(CCO)c2ncccc2-c2ccccc21 [crenigacestat]
The “CTG-3D luminescence at 96 h” value of the first is lower: 1.32 for the first, 2.38 for the second.

Compared with CC(C)n1nc(-c2ccc3oc(N)nc3c2)c2c(N)ncnc21 [sapanisertib], Cc1cc(Nc2ncnc3ccc(NC4=NC(C)(C)CO4)cc23)ccc1Oc1ccn2ncnc2c1 [tucatinib] is higher in “CTG-3D luminescence at 96 h” value: 0.902 for the first, 1.88 for the second.

Compared with O=C(c1ccc(F)c(F)c1Nc1ccc(I)cc1F)N1CC(O)([C@@H]2CCCCN2)C1 [cobimetinib], NC(=O)c1cccc2cn(-c3ccc([C@@H]4CCCNC4)cc3)nc12 [niraparib] is higher in “CTG-3D luminescence at 96 h” value: 0.872 for the first, 1.17 for the second.

First: Cc1cc(Nc2ncc(Cl)c(Nc3ccccc3S(=O)(=O)C(C)C)n2)c(OC(C)C)cc1C1CCNCC1 [ceritinib]
Second: CS(=O)(=O)c1ccc(C(=O)Nc2ccc(Cl)c(-c3ccccn3)c2)c(Cl)c1 [vismodegib]
The “CTG-3D luminescence at 96 h” value of the first is lower: 0.107 for the first, 2.36 for the second.

With CCN(c1cc(C#CCN2CCOCC2)cc(C(=O)NCc2c(C)cc(C)[nH]c2=O)c1C)[C@H]1CC[C@H](N(C)CCOC)CC1 the “CTG-3D luminescence at 96 h” value was 2.35.

same assay, conditions: 100 µM; days in culture: 105

Going from NC1(C(=O)N[C@@H](CCO)c2ccc(Cl)cc2)CCN(c2nc[nH]c3nccc2-3)CC1 [capivasertib] to C[C@H](NC(=O)CCC(F)(F)F)C(=O)N[C@@H]1C(=O)N(CCO)c2ncccc2-c2ccccc21 [crenigacestat], the “CTG-3D luminescence at 96 h” value rises from 0.401 to 1.62.

Compared with CC(C)n1nc(-c2ccc3oc(N)nc3c2)c2c(N)ncnc21 [sapanisertib], Cc1cc(Nc2ncnc3ccc(NC4=NC(C)(C)CO4)cc23)ccc1Oc1ccn2ncnc2c1 [tucatinib] is lower in “CTG-3D luminescence at 96 h” value: 0.243 for the first, 0.0289 for the second.

First: O=C(c1ccc(F)c(F)c1Nc1ccc(I)cc1F)N1CC(O)([C@@H]2CCCCN2)C1 [cobimetinib]
Second: NC(=O)c1cccc2cn(-c3ccc([C@@H]4CCCNC4)cc3)nc12 [niraparib]
The “CTG-3D luminescence at 96 h” value of the first is lower: -0.00552 for the first, 0.00247 for the second.

Compared with Cc1cc(Nc2ncc(Cl)c(Nc3ccccc3S(=O)(=O)C(C)C)n2)c(OC(C)C)cc1C1CCNCC1 [ceritinib], CS(=O)(=O)c1ccc(C(=O)Nc2ccc(Cl)c(-c3ccccn3)c2)c(Cl)c1 [vismodegib] is higher in “CTG-3D luminescence at 96 h” value: -0.0037 for the first, 1.09 for the second.

With CCN(c1cc(C#CCN2CCOCC2)cc(C(=O)NCc2c(C)cc(C)[nH]c2=O)c1C)[C@H]1CC[C@H](N(C)CCOC)CC1 the “CTG-3D luminescence at 96 h” value was 1.53.

same assay, conditions: 100 µM; days in culture: 122

First: NC1(C(=O)N[C@@H](CCO)c2ccc(Cl)cc2)CCN(c2nc[nH]c3nccc2-3)CC1 [capivasertib]
Second: C[C@H](NC(=O)CCC(F)(F)F)C(=O)N[C@@H]1C(=O)N(CCO)c2ncccc2-c2ccccc21 [crenigacestat]
The “CTG-3D luminescence at 96 h” value of the first is lower: 0.518 for the first, 2 for the second.

Going from CC(C)n1nc(-c2ccc3oc(N)nc3c2)c2c(N)ncnc21 [sapanisertib] to Cc1cc(Nc2ncnc3ccc(NC4=NC(C)(C)CO4)cc23)ccc1Oc1ccn2ncnc2c1 [tucatinib], the “CTG-3D luminescence at 96 h” value falls from 0.3 to 0.0421.

Compared with O=C(c1ccc(F)c(F)c1Nc1ccc(I)cc1F)N1CC(O)([C@@H]2CCCCN2)C1 [cobimetinib], NC(=O)c1cccc2cn(-c3ccc([C@@H]4CCCNC4)cc3)nc12 [niraparib] is higher in “CTG-3D luminescence at 96 h” value: -0.000547 for the first, 0.00108 for the second.

Going from Cc1cc(Nc2ncc(Cl)c(Nc3ccccc3S(=O)(=O)C(C)C)n2)c(OC(C)C)cc1C1CCNCC1 [ceritinib] to CS(=O)(=O)c1ccc(C(=O)Nc2ccc(Cl)c(-c3ccccn3)c2)c(Cl)c1 [vismodegib], the “CTG-3D luminescence at 96 h” value rises from -0.00377 to 1.23.

For CCN(c1cc(C#CCN2CCOCC2)cc(C(=O)NCc2c(C)cc(C)[nH]c2=O)c1C)[C@H]1CC[C@H](N(C)CCOC)CC1, the “CTG-3D luminescence at 96 h” value was 1.5.

same assay, conditions: 100 µM; days in culture: 163

Going from NC1(C(=O)N[C@@H](CCO)c2ccc(Cl)cc2)CCN(c2nc[nH]c3nccc2-3)CC1 [capivasertib] to C[C@H](NC(=O)CCC(F)(F)F)C(=O)N[C@@H]1C(=O)N(CCO)c2ncccc2-c2ccccc21 [crenigacestat], the “CTG-3D luminescence at 96 h” value rises from 0.629 to 1.88.

Going from CC(C)n1nc(-c2ccc3oc(N)nc3c2)c2c(N)ncnc21 [sapanisertib] to Cc1cc(Nc2ncnc3ccc(NC4=NC(C)(C)CO4)cc23)ccc1Oc1ccn2ncnc2c1 [tucatinib], the “CTG-3D luminescence at 96 h” value falls from 0.363 to 0.0384.

Compared with O=C(c1ccc(F)c(F)c1Nc1ccc(I)cc1F)N1CC(O)([C@@H]2CCCCN2)C1 [cobimetinib], NC(=O)c1cccc2cn(-c3ccc([C@@H]4CCCNC4)cc3)nc12 [niraparib] is higher in “CTG-3D luminescence at 96 h” value: -0.0079 for the first, 0.00351 for the second.

First: Cc1cc(Nc2ncc(Cl)c(Nc3ccccc3S(=O)(=O)C(C)C)n2)c(OC(C)C)cc1C1CCNCC1 [ceritinib]
Second: CS(=O)(=O)c1ccc(C(=O)Nc2ccc(Cl)c(-c3ccccn3)c2)c(Cl)c1 [vismodegib]
The “CTG-3D luminescence at 96 h” value of the first is lower: -0.00554 for the first, 1.4 for the second.

In the case of CCN(c1cc(C#CCN2CCOCC2)cc(C(=O)NCc2c(C)cc(C)[nH]c2=O)c1C)[C@H]1CC[C@H](N(C)CCOC)CC1, the “CTG-3D luminescence at 96 h” value is reported as 1.91.

same assay, conditions: 625 fM; days in culture: 105

Compared with NC1(C(=O)N[C@@H](CCO)c2ccc(Cl)cc2)CCN(c2nc[nH]c3nccc2-3)CC1 [capivasertib], C[C@H](NC(=O)CCC(F)(F)F)C(=O)N[C@@H]1C(=O)N(CCO)c2ncccc2-c2ccccc21 [crenigacestat] is lower in “CTG-3D luminescence at 96 h” value: 2.06 for the first, 1.56 for the second.

Compared with CC(C)n1nc(-c2ccc3oc(N)nc3c2)c2c(N)ncnc21 [sapanisertib], Cc1cc(Nc2ncnc3ccc(NC4=NC(C)(C)CO4)cc23)ccc1Oc1ccn2ncnc2c1 [tucatinib] is higher in “CTG-3D luminescence at 96 h” value: 1.88 for the first, 2.2 for the second.

Going from O=C(c1ccc(F)c(F)c1Nc1ccc(I)cc1F)N1CC(O)([C@@H]2CCCCN2)C1 [cobimetinib] to NC(=O)c1cccc2cn(-c3ccc([C@@H]4CCCNC4)cc3)nc12 [niraparib], the “CTG-3D luminescence at 96 h” value falls from 2.08 to 1.56.

Compared with Cc1cc(Nc2ncc(Cl)c(Nc3ccccc3S(=O)(=O)C(C)C)n2)c(OC(C)C)cc1C1CCNCC1 [ceritinib], CS(=O)(=O)c1ccc(C(=O)Nc2ccc(Cl)c(-c3ccccn3)c2)c(Cl)c1 [vismodegib] is higher in “CTG-3D luminescence at 96 h” value: 1.39 for the first, 1.64 for the second.

In the case of CCN(c1cc(C#CCN2CCOCC2)cc(C(=O)NCc2c(C)cc(C)[nH]c2=O)c1C)[C@H]1CC[C@H](N(C)CCOC)CC1, the “CTG-3D luminescence at 96 h” value is reported as 1.42.

same assay, conditions: 625 fM; days in culture: 122

First: NC1(C(=O)N[C@@H](CCO)c2ccc(Cl)cc2)CCN(c2nc[nH]c3nccc2-3)CC1 [capivasertib]
Second: C[C@H](NC(=O)CCC(F)(F)F)C(=O)N[C@@H]1C(=O)N(CCO)c2ncccc2-c2ccccc21 [crenigacestat]
The “CTG-3D luminescence at 96 h” value of the first is lower: 2.23 for the first, 2.55 for the second.

First: CC(C)n1nc(-c2ccc3oc(N)nc3c2)c2c(N)ncnc21 [sapanisertib]
Second: Cc1cc(Nc2ncc(Cl)c(Nc3ccccc3S(=O)(=O)C(C)C)n2)c(OC(C)C)cc1C1CCNCC1 [ceritinib]
The “CTG-3D luminescence at 96 h” value of the first is higher: 2.57 for the first, 2.07 for the second.

Compared with O=C(c1ccc(F)c(F)c1Nc1ccc(I)cc1F)N1CC(O)([C@@H]2CCCCN2)C1 [cobimetinib], CS(=O)(=O)c1ccc(C(=O)Nc2ccc(Cl)c(-c3ccccn3)c2)c(Cl)c1 [vismodegib] is lower in “CTG-3D luminescence at 96 h” value: 3.01 for the first, 2.04 for the second.

From the supplement of paper PMC8882468
